Reference: patent US20260042764A1, “COMPOSITIONS AND METHODS FOR INHIBITION OF KRAS” (TheRas, Inc., priority 2022, published 2026)

Legend:
[1] = target: T1, Avi-KRAS G12D (1-169) GppNHp/RAF1 RBD-3xFLAG (52-151) (Homo sapiens, UniProt P01116, G12D); test: Raf1-KRAS G12D-GppNHP disruption HTRF assay (Biological Example 1); format: binding; conditions: KRAS G12D, GppNHp-loaded
T1 construct: Avi-KRAS G12D (1-169)
Procedure: (§1) A protein:protein interaction (PPI) Homogeneous Time Resolved Fluorescence (HTRF) assay was used to determine the effectiveness of compounds of the present disclosure in disrupting KRAS protein and effector RAF1 binding.
(§2) The assay buffer included: 50 mM Tris pH 7.5, 100 mM NaCl, 5 mM MgCl2, 0.1% BSA, 0.01% Tween, and 10% DMSO. The bead buffer included: 50 mM Tris pH 7.5, and 0.01% Tween 20. Assay volume of 20 μL was used in a 384 well plate-low volume format.
(§3) The HTRF assay employed the following protocol:
(§4) Protein mix was prepared in assay buffer, and dispensed on plates, 10 μL per well, then incubated for 1 h at room temperature, with 700 rpm shaking, Reagents mix was prepared and dispensed on plates, 10 μL per well, then incubated for 1 h at room temperature, with 700 rpm shaking.
(§5) Data was reported as percentage of activity, with DMSO as 100%. Data was plotted and analyzed using Prism 8.

GP2d cells (KRAS G12D) = test: Cell-based pERK HTRF assay in GP2d cell (Biological Example 2); conditions: GP2d (KRAS G12D) cells
Procedure: A pERK assay (Perkin Elmer) was used to determine the effectiveness of compounds in disrupting KRAS G12D protein/effector signaling in cells.
On Day 1, cells (GP2d) were seeded into 96-well plates at 3×10^4 cells/well in 80 μL complete growth media (DMEM, 10% FBS).
(§6) On Day 2, cells were treated with compounds at 0.25% DMSO. The source plate was created with compounds diluted in media at 5-fold the final assay concentration. The compounds were run in a 9-point concentration curve starting at 1 μM or in a 9-point concentration curve starting at 100 nM, with a half-log dilution between concentrations. Twenty μL was transferred onto the cell plates (final volume in wells was 100 μL). Plates were harvested after 60 min incubation by aspirating media and adding kit-supplied 1x supplemented lysis buffer to all wells (50 μL per well). Plates were then placed on a plate shaker and incubated at 850 rpm for an additional 30 min.
Antibody mixture solution was prepared by diluting aliquoted d2 and Eu Cryptate antibodies 1:20 in kit supplied detection buffer, and mixing the diluted antibodies solutions (1:1 v:v).
Samples were homogenized by pipetting up and down and then transferred (16 μL of cell lysates) from the 96-well cell culture plate to two wells of the HTRF 384-well detection plate containing the antibody solution. Plates were centrifuged (524 g for 1 min) and allowed to incubate between 4 and 24 h at room temperature. Maximum signal is reached after 4 h incubation time and remains stable over a period of 24 hours. Therefore, readings can be made between 4 and 24 h of incubation. Plates were centrifuged again (524 g for Imin), then analyzed on the EnVision plate reader using the following settings: Excitation 320 nm, Bandwidth 75 nm; Emission 615 nm, Bandwidth 85 nm; Gain 100%; Flashes 100; Lag 60 μs.

[2] = target: T2, Avi-KRAS G12V (1-169) GppNHp/RAF1 RBD-3xFLAG (52-151) (Homo sapiens, UniProt P01116, G12V); test: Raf1-KRAS G12V-GppNHP disruption HTRF assay (Biological Example 1); format: binding; conditions: KRAS G12V, GppNHp-loaded; Table 11
T2 construct: Avi-KRAS G12V (1-169)
Procedure: as §1, §2, §3, §4, §5

[3] = target: T3, Avi-KRAS WT (1-169) GppNHp/RAF1 RBD-3xFLAG (52-151) (Homo sapiens, UniProt P01116); test: Raf1-KRAS WT-GppNHP disruption HTRF assay (Biological Example 1); format: binding; conditions: KRAS WT, GppNHp-loaded; Table 11
T3 construct: Avi-KRAS WT (1-169)
Procedure: as §1, §2, §3, §4, §5

SW620 cells (KRAS G12V) = test: Cell-based pERK HTRF assay in SW620 cell (Biological Example 4)
Procedure: A pERK assay (Perkin Elmer) was used to determine the effectiveness of compounds in disrupting KRAS G12V protein/effector signaling in cells.
On Day 1, cells (SW620) were seeded into 96-well plates at 3×10^4 cells/well in 80 μL complete growth media (RPMI, 10% FBS).
as §6, with “μM,” for “μM or in a 9-point concentration curve starting at 100 nM,”, “4 h” for “60 min”
Antibody mixture solution was prepared by diluting aliquoted d2 and Eu Cryptate antibodies 1:20 in kit supplied detection buffer and mixing the diluted antibodies solutions (1:1 v:v).
Samples were homogenized by pipetting up and down and then transferred (16 μL of cell lysates) from the 96-well cell culture plate to two wells of the HTRF 384-well detection plate containing the antibody solution. Plates were centrifuged (524 g for Imin) and allowed to incubate between 4 and 24 h at room temperature. […] Plates were centrifuged again (524 g for 1 min), then analyzed on the En Vision plate reader using the following settings: Excitation 320 nm, Bandwidth 75 nm; Emission 615 nm, Bandwidth 85 nm; Gain 100%; Flashes 100; Lag 60 μs.

[4] = SW620 (KRAS G12V) cells, pERK HTRF, class symbols

T1 sequence (P01116 1-169 isoform P01116-2 G12D): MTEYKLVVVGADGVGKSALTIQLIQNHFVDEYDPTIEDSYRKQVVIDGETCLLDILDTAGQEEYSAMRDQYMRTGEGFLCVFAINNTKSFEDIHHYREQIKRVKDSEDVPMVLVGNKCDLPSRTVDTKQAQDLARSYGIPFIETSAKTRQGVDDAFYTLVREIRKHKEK
T2 sequence (P01116 1-169 isoform P01116-2 G12V): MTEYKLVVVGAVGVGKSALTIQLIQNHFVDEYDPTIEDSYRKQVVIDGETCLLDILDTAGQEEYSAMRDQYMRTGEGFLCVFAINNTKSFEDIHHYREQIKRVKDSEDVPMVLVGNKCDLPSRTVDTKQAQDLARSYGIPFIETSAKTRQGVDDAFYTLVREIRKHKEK
T3 sequence (P01116 1-169 isoform P01116-2): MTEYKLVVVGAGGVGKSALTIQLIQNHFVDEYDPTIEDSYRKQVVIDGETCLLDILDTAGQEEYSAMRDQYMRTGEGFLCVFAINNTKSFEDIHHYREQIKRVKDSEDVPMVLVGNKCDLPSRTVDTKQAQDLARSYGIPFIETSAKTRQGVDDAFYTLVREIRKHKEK

| IC50 ([1]; Table 11) | IC50 [2] | IC50 [3] | IC50 (GP2d cells (KRAS G12D); GP2d, pERK HTRF) | also measured | SMILES |
| --- | --- | --- | --- | --- | --- |
| 0.1 to 1 µM | – | – | – | IC50 (GP2d cells (KRAS G12D); pERK HTRF): < 0.1 µM | CN(c1nc(OC[C@@]23CCCN2C[C@H](F)C3)nc2c(F)c(-c3ccc(F)c4sc(N)c(C#N)c34)c(C(F)(F)F)cc12)[C@@H]1CCN(C(=O)CC#N)C1 (atropisomer, axis not shown) [Compound 102] |
| > 10 µM | > 10 µM | 1 to 10 µM | – | – | CO[C@@H]1C[C@@H](COc2nc(N(C)[C@H]3C[C@@H](O)C3)c3cc(C(F)(F)F)c(-c4ccc(F)c5sc(N)nc45)c(F)c3n2)N(C)C1 (atropisomer, axis not shown) [Compound 17] |
| – | – | – | < 0.1 µM | – | CN(c1nc(OCC2(CN3CCOCC3)CC2)nc2c(F)c(-c3ccc(F)c4sc(N)c(C#N)c34)c(C(F)(F)F)cc12)C1CC(O)C1 (stereo not drawn) [Compound 122] |
| 1 to 10 µM | > 10 µM | 1 to 10 µM | – | – | Nc1nc2c(-c3c(C(F)(F)F)cc4c(N[C@H]5C[C@@H](O)C5)nc(OCC56CCCN5CCC6)nc4c3F)ccc(F)c2s1 (atropisomer, axis not shown) [Compound 9] |
| – | – | – | > 1 µM | – | CO[C@@H]1C[C@@H](COc2nc(N(C)C3CC(O)C3)c3cc(C(F)(F)F)c(-c4ccc(F)c5sc(N)nc45)c(F)c3n2)N(C)C1 (stereo partly drawn) [Compound 17] |
| > 10 µM | > 10 µM | > 10 µM | – | – | CCC(=O)N1C2CCC1CN(c1nc(OC[C@@]34CCCN3C[C@H](F)C4)nc3c(F)c(-c4ccc(F)c5sc(N)nc45)c(C(F)(F)F)cc13)C2 [Compound 97] |
| 1 to 10 µM | 1 to 10 µM | 1 to 10 µM | – | – | CN(c1nc(OCC23CCCN2CCC3)nc2c(F)c(-c3ccc(F)c4sc(N)nc34)c(C(F)(F)F)cc12)[C@H]1C[C@H](O)C1 (atropisomer, axis not shown) [Compound 3] |
| – | – | – | – | IC50 ([1]; class symbols): < 0.1 µM; IC50 (GP2d cells (KRAS G12D); pERK HTRF, class symbols): < 0.1 µM; IC50 (SW620 cells (KRAS G12V); [4]): < 0.1 µM | CCN(c1nc(OC[C@@]23CCCN2C[C@H](F)C3)nc2c(F)c(-c3ccc(F)c4sc(N)c(C#N)c34)c(C(F)(F)F)cc12)[C@H]1CCN(C(=O)OC2CC(OC)C2)C1 (stereo partly drawn) [Compound 792] |
| – | – | – | > 1 µM | – | CN(c1nc(OCC23CCCN2CCC3)nc2c(F)c(-c3ccc(F)c4sc(N)nc34)c(C(F)(F)F)cc12)C1CC(O)C1 (stereo not drawn) [Compound 2] |
| 0.1 to 1 µM | 1 to 10 µM | 0.1 to 1 µM | – | – | CO[C@H]1CN2CCC[C@@]2(COc2nc(N(C)[C@H]3C[C@@H](O)C3)c3cc(C(F)(F)F)c(-c4ccc(F)c5sc(N)nc45)c(F)c3n2)C1 (atropisomer, axis not shown) [Compound 13] |
| 1 to 10 µM | > 10 µM | > 10 µM | – | – | Nc1nc2c(-c3c(C(F)(F)F)cc4c(N5CCCC(CO)C5)nc(OCC56CCCN5CCC6)nc4c3F)ccc(F)c2s1 (stereo not drawn) [Compound 54] |
| 1 to 10 µM | 1 to 10 µM | 1 to 10 µM | – | – | CCN(c1nc(OCC23CCCN2CCC3)nc2c(F)c(-c3ccc(F)c4sc(N)nc34)c(C(F)(F)F)cc12)[C@H]1C[C@@H](O)C1 (atropisomer, axis not shown) [Compound 7] |
| 1 to 10 µM | > 10 µM | 1 to 10 µM | – | – | Nc1nc2c(-c3c(C(F)(F)F)cc4c(N[C@H]5CC[C@@H](O)C5)nc(OCC56CCCN5CCC6)nc4c3F)ccc(F)c2s1 (atropisomer, axis not shown) [Compound 60] |
| > 10 µM | – | – | – | – | CN(c1nc(OCC23CCCN2CCC3)nc2c(F)c(-c3ccc(F)c4sc(N)nc34)c(C(F)(F)F)cc12)C1CC(O)C12CCCC2 (single isomer, unassigned) [Compound 11] |
| 0.1 to 1 µM | – | – | – | IC50 (GP2d cells (KRAS G12D); pERK HTRF): < 0.1 µM | CCN(CCCO)c1nc(OC[C@@]23CCCN2C[C@H](F)C3)nc2c(F)c(-c3ccc(F)c4sc(N)c(C#N)c34)c(C(F)(F)F)cc12 [Compound 75] |
| – | – | – | > 1 µM | – | CN(c1nc(OCC2(CN3CCOCC3)CC2)nc2c(F)c(-c3ccc(F)c4sc(N)nc34)c(C(F)(F)F)cc12)C1CC(O)C1 (stereo not drawn) [Compound 16] |
| – | – | – | > 1 µM | – | CO[C@H]1CN2CCC[C@]2(COc2nc(N(C)C3CC(O)C3)c3cc(C(F)(F)F)c(-c4ccc(F)c5sc(N)nc45)c(F)c3n2)C1 (stereo partly drawn) [Compound 14] |
| – | – | – | > 1 µM | – | CN(c1nc(OC[C@@H]2C[C@@H](F)CN2C)nc2c(F)c(-c3ccc(F)c4sc(N)nc34)c(C(F)(F)F)cc12)C1CC(O)C1 (stereo partly drawn) [Compound 12] |
| – | – | – | > 1 µM | – | CO[C@H]1CN2CCC[C@@]2(COc2nc(N(C)C3CC(O)C3)c3cc(C(F)(F)F)c(-c4ccc(F)c5sc(N)nc45)c(F)c3n2)C1 (stereo partly drawn) [Compound 13] |
| – | – | – | 0.1 to 1 µM | IC50 (SW620 cells (KRAS G12V); SW620 (KRAS G12V) cells, pERK HTRF): 0.1 to 1 µM | CN(c1nc(OC[C@@]23CCCN2C[C@H](F)C3)nc2c(F)c(-c3ccc(F)c4sc(N)c(C#N)c34)c(C(F)(F)F)cc12)C1(CC#N)CC(O)C1 (stereo partly drawn) [Compound 249] |
| – | – | – | – | IC50 (GP2d cells (KRAS G12D); GP2d): < 0.1 µM; IC50 (SW620 cells (KRAS G12V); Homo sapiens, SW-620, SW620 (KRAS G12V) cells): < 0.1 µM | CCN(c1nc(OC[C@@]23CCCN2C[C@H](F)C3)nc2c(F)c(-c3ccc(F)c4sc(N)c(C#N)c34)c(C(F)(F)F)cc12)C1CC(C(=O)N(C)C)C1 (stereo partly drawn) [Compound 950] |
| – | – | – | < 0.1 µM | – | CN(c1nc(OC[C@@]23CCCN2C[C@H](F)C3)nc2c(F)c(-c3ccc(F)c4sc(N)c(C#N)c34)c(C(F)(F)F)cc12)C1CC(F)C1 (stereo partly drawn) [Compound 160] |
| – | – | – | 0.1 to 1 µM | – | CN(c1nc(OC[C@@]23CCCN2C[C@H](F)C3)nc2c(F)c(-c3ccc(F)c4sc(N)nc34)c(C(F)(F)F)cc12)C1CC(O)C1 (stereo partly drawn) [Compound 8] |
| – | – | – | – | IC50 ([1]; class symbols): 0.1 to 1 µM; IC50 (GP2d cells (KRAS G12D); pERK HTRF, class symbols): < 0.1 µM; IC50 (SW620 cells (KRAS G12V); [4]): < 0.1 µM | CCN(c1nc(OC[C@@]23CCCN2C[C@H](F)C3)nc2c(F)c(-c3ccc(F)c4sc(N)c(C#N)c34)c(C(F)(F)F)cc12)[C@H]1C[C@H](C)N(C(=O)[C@@H](C)OC)C1 (atropisomer, axis not shown) [Compound 763] |
